From patent US12336981B2, “Compounds and compositions for the inhibition of NAMPT” (Valo Health, Inc., priority 2010, dated 2025)
Like-named read-outs stand apart in the source and are kept apart here.

Tests used:
NAMPT = target: T1, NAMPT (Homo sapiens, UniProt P43490); assay: Biochemical inhibition assay: NAMPT enzymatic reaction, NMN quantified by mass spectrometry; details: read-out: Biochem IC50
T1 construct: His tag; host or cells: E. coli
In short: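 Inhibition of E. coli-expressed His-tagged human NAMPT, measured as NMN formation by mass spectrometry after a 30 min room-temperature reaction containing 1 μM NAM, 100 μM PRPP and 2.5 mM ATP.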

A2780 cells = assay: In-vitro cell proliferation assay (SRB), A2780 cells; type: cell-based; details: Homo sapiens, A2780, 72 h, A2780 cells, 72 hours, read-out: A2780 IC50
In short: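 Growth inhibition was derived from background-corrected SRB absorbance (570 nm), measured on cells fixed in 6% TCA after three days of compound treatment under 5% CO2 at 37° C.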

T1 sequence (P43490 whole entry): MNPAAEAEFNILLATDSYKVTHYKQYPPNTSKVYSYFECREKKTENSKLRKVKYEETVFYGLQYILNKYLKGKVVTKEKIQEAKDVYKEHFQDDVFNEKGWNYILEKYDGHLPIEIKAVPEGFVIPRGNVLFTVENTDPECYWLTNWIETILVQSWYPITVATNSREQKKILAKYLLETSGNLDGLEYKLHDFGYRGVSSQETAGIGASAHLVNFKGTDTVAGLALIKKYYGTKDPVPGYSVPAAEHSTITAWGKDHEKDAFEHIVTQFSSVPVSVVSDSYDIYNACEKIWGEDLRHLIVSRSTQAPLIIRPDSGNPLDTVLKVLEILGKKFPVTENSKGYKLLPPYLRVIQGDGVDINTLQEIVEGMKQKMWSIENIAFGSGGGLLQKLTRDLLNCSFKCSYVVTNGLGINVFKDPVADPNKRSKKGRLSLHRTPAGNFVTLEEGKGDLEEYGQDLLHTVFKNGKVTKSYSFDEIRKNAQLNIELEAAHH

Compound | IC50 (NAMPT; NAMPT enzymatic assay) [nM] | IC50 (A2780 cells; SRB) [nM] | IC50 (NAMPT; NAMPT enzymatic reaction) [nM] | IC50 (A2780 cells; SRB assay) [nM]
O=C(NCc1ccc(S(=O)(=O)c2cnn(-c3ccc(F)cc3)c2)cc1)c1cc2cnccc2[nH]1 [N-({4-[1-(4-fluorophenyl)-1H-pyrazole-4-sulfonyl]phenyl}methyl)-1H-pyrrolo[3,2-c]pyridine-2-carboxamide] | 18.4 | 6.6 |  | 
O=C(NCc1ccc(S(=O)(=O)c2cccc(OCCN3CCOCC3)c2)cc1)c1cnc2nccn2c1 | 3.1 | 24.7 |  | 
Cc1cc(Cl)ccc1S(=O)(=O)c1ccc(CNC(=O)c2cnc3nccn3c2)cc1 |  | 53.9 | 6.6 | 
CCCOc1ccc(Cl)cc1S(=O)(=O)c1ccc(CNC(=O)c2cc3ccncc3o2)cc1 |  | 9.3 | 8 | 
Cc1ccc(Cl)c(S(=O)(=O)c2ccc(CNC(=O)c3cnc4nccn4c3)cc2)c1 |  | 22.5 | 5.7 | 
O=C(NCc1ccc(S(=O)(=O)c2ccc(-c3ccccc3)cc2)cc1)c1cc2cnccc2[nH]1 [N-({4-[(4-phenylbenzene)sulfonyl]phenyl}methyl)-1H-pyrrolo[3,2-c]pyridine-2-carboxamide] |  | 13.3 | 31 | 
CNS(=O)(=O)c1ccccc1S(=O)(=O)c1ccc(CNC(=O)c2cc3ccncc3o2)cc1 | 51.3 | 74 |  | 
Cc1cc(C)cc(S(=O)(=O)c2ccc(CNC(=O)c3cc4cnccc4[nH]3)cc2)c1 [N-({4-[(3,5-dimethylbenzene)sulfonyl]phenyl}methyl)-1H-pyrrolo[3,2-c]pyridine-2-carboxamide] |  |  | 9 | 2
Cc1cc(-n2cccn2)ccc1S(=O)(=O)c1ccc(CNC(=O)c2cc3cnccc3[nH]2)cc1 [N-[(4-{[2-methyl-4-(1H-pyrazol-1-yl)benzene]sulfonyl}phenyl)methyl]-1H-pyrrolo[3,2-c]pyridine-2-carboxamide] |  |  | 4 | 4
CCCn1cc(S(=O)(=O)c2ccc(CNC(=O)c3cnc4[nH]ncc4c3)cc2)cn1 [N-{[4-(1-propyl-1H-pyrazole-4-sulfonyl)phenyl]methyl}-1H-pyrazolo[3,4-b]pyridine-5-carboxamide] | 8 | 7 |  | 
CCOc1ccc(NS(=O)(=O)c2ccc(CNC(=O)c3cc4cnccc4[nH]3)cc2)c(F)c1 [N-({4-[(4-ethoxy-2-fluorophenyl)sulfamoyl]phenyl}methyl)-1H-pyrrolo[3,2-c]pyridine-2-carboxamide] |  |  | 154 | 1600
CS(=O)(=O)c1cccc(S(=O)(=O)c2ccc(CNC(=O)c3cc4ccncc4o3)cc2)c1 |  | 6.8 | 6 | 
CCOCc1ccc(S(=O)(=O)c2ccc(CNC(=O)c3cnc4nccn4c3)cc2)cc1 | 2.7 | 5.2 |  | 
COc1cc(F)ccc1S(=O)(=O)c1ccc(CNC(=O)c2ccc3nccn3c2)cc1 [N-({4-[(4-fluoro-2-methoxybenzene)sulfonyl]phenyl}methyl)imidazo[1,2-a]pyridine-6-carboxamide] |  | 7.05 | 19.3 | 
Cc1ccc(Cl)cc1S(=O)(=O)c1ccc(CNC(=O)c2ccc3nccn3c2)cc1 [N-({4-[(5-chloro-2-methylbenzene)sulfonyl]phenyl}methyl)imidazo[1,2-a]pyridine-6-carboxamide] |  | 3.7 | 1.9 | 
O=C(NCc1ccc(S(=O)(=O)c2cccc3c2Oc2ccccc2S3)cc1)c1cc2ccncc2o1 [N-{[4-(phenoxathiine-4-sulfonyl)phenyl]methyl}furo[2,3-c]pyridine-2-carboxamide] | 5.6 | 13.1 |  | 
Cc1ccc(Cl)cc1S(=O)(=O)c1ccc(CNC(=O)c2cc3ccncc3o2)cc1 |  | 7.8 | 5.8 | 
O=C(NCc1ccc(S(=O)(=O)c2ccc(N3CCOCC3)cc2)cc1)c1cc2ccncc2s1 | 1.6 | 1.5 |  | 
COc1cncc(S(=O)(=O)c2ccc(CNC(=O)c3cnc4nccn4c3)cc2)c1 [N-{[4-(5-methoxypyridine-3-sulfonyl)phenyl]methyl}imidazo[1,2-a]pyrimidine-6-carboxamide] | 1.6 | 25.8 |  | 
